Experimental data as given in paper PMC7586344, “Discovery of Novel pERK1/2- or β-Arrestin-Preferring 5-HT1A Receptor-Biased Agonists: Diversified Therapeutic-like versus Side Effect Profile” (Journal of Medicinal Chemistry, 2020).

Columns and labels:
Experiment in all cases: Off-target binding screen
SERT = target: T1, SERT (Homo sapiens, UniProt P31645); conditions: 1000 nM, read-out: % Inhibition of Control Specific Binding
T1 construct: Eurofins Pharma Discovery Services

5-HT6 = target: T2, 5-HT6 (Homo sapiens, UniProt P50406); conditions: 1000 nM, read-out: % Inhibition of Control Specific Binding
T2 construct: Eurofins Pharma Discovery Services (contract screen)

M5 = target: T3, M5 (Homo sapiens, UniProt P08912); conditions: read-out: % Inhibition of Control Specific Binding; for inhibition at 1 µM: 1000 nM
T3 construct: Eurofins Pharma Discovery Services (contract assay)
T3 sequence (P08912 1-532): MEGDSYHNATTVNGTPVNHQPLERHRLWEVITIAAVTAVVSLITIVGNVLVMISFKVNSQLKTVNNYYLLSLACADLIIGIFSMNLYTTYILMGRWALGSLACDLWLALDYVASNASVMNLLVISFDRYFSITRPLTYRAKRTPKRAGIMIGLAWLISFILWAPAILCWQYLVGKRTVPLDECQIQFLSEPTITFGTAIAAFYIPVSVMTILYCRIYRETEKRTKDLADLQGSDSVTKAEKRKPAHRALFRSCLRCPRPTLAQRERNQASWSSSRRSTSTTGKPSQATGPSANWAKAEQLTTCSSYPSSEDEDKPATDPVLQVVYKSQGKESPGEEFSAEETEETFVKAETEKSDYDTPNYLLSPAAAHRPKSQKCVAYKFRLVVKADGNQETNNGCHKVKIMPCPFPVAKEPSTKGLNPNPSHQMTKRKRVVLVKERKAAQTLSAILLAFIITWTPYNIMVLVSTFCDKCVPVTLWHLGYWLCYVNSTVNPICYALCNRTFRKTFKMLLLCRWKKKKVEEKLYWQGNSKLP

D3 = target: T4, D3 (Homo sapiens, UniProt P35462); conditions: read-out: % Inhibition of Control Specific Binding; for inhibition at 0.01 µM: 10 nM; for inhibition at 0.1 µM: 100 nM; for inhibition at 1 µM: 1000 nM
T4 construct: Eurofins Pharma Discovery Services (contract assay)

BZDp (TSPO) = target: T5, BZDp (TSPO) (Homo sapiens, UniProt P30536); conditions: 1000 nM, read-out: % Inhibition of Control Specific Binding
T5 construct: Eurofins Pharma Discovery Services (contract assay)

D1 = target: T6, D1 (Homo sapiens, UniProt P21728); conditions: read-out: % Inhibition of Control Specific Binding; for inhibition at 1 µM: 1000 nM
T6 construct: Eurofins Pharma Discovery Services (contract assay)

H3 = target: T7, H3 (Homo sapiens, UniProt Q9Y5N1); conditions: 1000 nM, read-out: % Inhibition of Control Specific Binding
T7 construct: Eurofins Pharma Discovery Services (contract assay)

κ (KOR) = target: T8, κ (KOR) (Homo sapiens, UniProt P41145); conditions: 1000 nM, read-out: % Inhibition of Control Specific Binding
T8 construct: Eurofins Pharma Discovery Services (contract assay)

CB1 = target: T9, CB1 (Homo sapiens, UniProt P21554); conditions: 1000 nM, read-out: % Inhibition of Control Specific Binding
T9 construct: Eurofins Pharma Discovery Services (contract assay)

σ1 = target: T10, σ1 (Homo sapiens, UniProt Q99720); conditions: read-out: % Inhibition of Control Specific Binding; for inhibition at 0.01 µM: 10 nM; for inhibition at 0.1 µM: 100 nM; for inhibition at 1 µM: 1000 nM
T10 construct: Eurofins Pharma Discovery Services (contract assay)

BZD (peripheral) = conditions: 1000 nM
GABAA1 (α1,β2,γ2) = target: T11, GABAA1 (α1,β2,γ2) (Homo sapiens, UniProt P14867+P18507+P47870); conditions: 1000 nM, read-out: % Inhibition of Control Specific Binding
T11 construct: Eurofins Pharma Discovery Services (contract assay)

δ (DOR) = target: T12, δ (DOR) (Homo sapiens, UniProt P41143); conditions: 1000 nM, read-out: % Inhibition of Control Specific Binding
T12 construct: Eurofins Pharma Discovery Services (contract assay)

NET = target: T13, NET (Homo sapiens, UniProt P23975); conditions: 1000 nM, read-out: % Inhibition of Control Specific Binding
T13 construct: Eurofins Pharma Discovery Services

5-HT2B = target: T14, 5-HT2B (Homo sapiens, UniProt P41595); conditions: 1000 nM, read-out: % Inhibition of Control Specific Binding
T14 construct: Eurofins Pharma Discovery Services (contract screen)

H4 = target: T15, H4 (Homo sapiens, UniProt Q9H3N8); conditions: 1000 nM, read-out: % Inhibition of Control Specific Binding
T15 construct: Eurofins Pharma Discovery Services (contract assay)

CB2 = target: T16, CB2 (Homo sapiens, UniProt P34972); conditions: 1000 nM, read-out: % Inhibition of Control Specific Binding
T16 construct: Eurofins Pharma Discovery Services (contract assay)

σ2 = target: T17, σ2 (Homo sapiens, UniProt Q5BJF2); conditions: read-out: % Inhibition of Control Specific Binding; for inhibition at 0.01 µM: 10 nM; for inhibition at 0.1 µM: 100 nM; for inhibition at 1 µM: 1000 nM
T17 construct: Eurofins Pharma Discovery Services (contract assay)

β3 = target: T18, β3 (Homo sapiens, UniProt P13945); conditions: 1000 nM, read-out: % Inhibition of Control Specific Binding
T18 construct: Eurofins Pharma Discovery Services (contract assay)

5-HT5A = target: T19, 5-HT5A (Homo sapiens, UniProt P47898); conditions: read-out: % Inhibition of Control Specific Binding; for inhibition at 1 µM: 1000 nM
T19 construct: Eurofins Pharma Discovery Services (contract screen)

α2C = target: T20, α2C (Homo sapiens, UniProt P18825); conditions: read-out: % Inhibition of Control Specific Binding; for inhibition at 0.001 µM: 1 nM; for inhibition at 0.01 µM: 10 nM; for inhibition at 0.1 µM: 100 nM; for inhibition at 1 µM: 1000 nM
T20 construct: Eurofins Pharma Discovery Services (contract screen)
T20 sequence (P18825 1-462): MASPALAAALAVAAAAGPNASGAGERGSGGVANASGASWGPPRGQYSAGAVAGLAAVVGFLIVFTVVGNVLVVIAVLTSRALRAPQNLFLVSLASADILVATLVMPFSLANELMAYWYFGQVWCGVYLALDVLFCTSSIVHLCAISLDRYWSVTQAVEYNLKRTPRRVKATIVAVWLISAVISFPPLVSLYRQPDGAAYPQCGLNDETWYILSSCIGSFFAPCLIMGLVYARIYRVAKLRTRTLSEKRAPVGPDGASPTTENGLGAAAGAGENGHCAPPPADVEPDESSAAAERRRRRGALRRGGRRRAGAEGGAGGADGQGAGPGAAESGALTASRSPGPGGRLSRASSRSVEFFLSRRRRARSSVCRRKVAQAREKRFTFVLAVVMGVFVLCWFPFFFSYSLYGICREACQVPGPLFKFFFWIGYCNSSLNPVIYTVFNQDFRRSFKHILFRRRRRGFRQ

D4.4 = target: T21, D4.4 (Homo sapiens, UniProt P21917); conditions: read-out: % Inhibition of Control Specific Binding; for inhibition at 0.001 µM: 1 nM; for inhibition at 0.01 µM: 10 nM; for inhibition at 0.1 µM: 100 nM; for inhibition at 1 µM: 1000 nM
T21 construct: Eurofins Pharma Discovery Services (contract assay)
T21 sequence (P21917 1-419): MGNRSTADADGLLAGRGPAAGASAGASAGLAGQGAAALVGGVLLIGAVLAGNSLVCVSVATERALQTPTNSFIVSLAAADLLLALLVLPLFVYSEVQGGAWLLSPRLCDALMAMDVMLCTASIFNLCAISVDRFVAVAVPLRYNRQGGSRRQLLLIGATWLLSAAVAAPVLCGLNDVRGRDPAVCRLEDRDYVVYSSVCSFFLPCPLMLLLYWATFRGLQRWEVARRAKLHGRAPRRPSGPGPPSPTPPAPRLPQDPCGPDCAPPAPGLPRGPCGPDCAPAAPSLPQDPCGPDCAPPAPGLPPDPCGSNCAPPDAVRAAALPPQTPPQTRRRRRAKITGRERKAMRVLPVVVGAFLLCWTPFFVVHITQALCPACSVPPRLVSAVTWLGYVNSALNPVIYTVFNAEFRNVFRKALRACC

M3 = target: T22, M3 (Homo sapiens, UniProt P20309); conditions: 1000 nM, read-out: % Inhibition of Control Specific Binding
T22 construct: Eurofins Pharma Discovery Services (contract assay)

T13 sequence (P23975 whole entry): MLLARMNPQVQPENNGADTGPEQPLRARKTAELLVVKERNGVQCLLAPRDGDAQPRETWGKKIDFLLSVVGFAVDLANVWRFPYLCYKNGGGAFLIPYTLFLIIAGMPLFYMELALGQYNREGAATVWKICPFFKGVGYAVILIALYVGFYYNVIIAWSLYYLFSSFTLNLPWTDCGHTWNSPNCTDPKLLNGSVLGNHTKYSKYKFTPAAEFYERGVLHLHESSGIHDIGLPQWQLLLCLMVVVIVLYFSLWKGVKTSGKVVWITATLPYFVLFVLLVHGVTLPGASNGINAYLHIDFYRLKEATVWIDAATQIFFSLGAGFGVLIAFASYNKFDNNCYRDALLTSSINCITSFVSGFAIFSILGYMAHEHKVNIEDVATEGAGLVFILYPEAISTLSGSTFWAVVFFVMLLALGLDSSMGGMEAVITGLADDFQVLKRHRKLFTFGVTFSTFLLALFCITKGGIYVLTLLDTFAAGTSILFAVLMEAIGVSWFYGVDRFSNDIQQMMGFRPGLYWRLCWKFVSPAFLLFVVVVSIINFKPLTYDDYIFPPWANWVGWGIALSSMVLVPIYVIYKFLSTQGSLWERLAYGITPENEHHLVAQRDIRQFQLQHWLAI
T9 sequence (P21554 whole entry, species assumed): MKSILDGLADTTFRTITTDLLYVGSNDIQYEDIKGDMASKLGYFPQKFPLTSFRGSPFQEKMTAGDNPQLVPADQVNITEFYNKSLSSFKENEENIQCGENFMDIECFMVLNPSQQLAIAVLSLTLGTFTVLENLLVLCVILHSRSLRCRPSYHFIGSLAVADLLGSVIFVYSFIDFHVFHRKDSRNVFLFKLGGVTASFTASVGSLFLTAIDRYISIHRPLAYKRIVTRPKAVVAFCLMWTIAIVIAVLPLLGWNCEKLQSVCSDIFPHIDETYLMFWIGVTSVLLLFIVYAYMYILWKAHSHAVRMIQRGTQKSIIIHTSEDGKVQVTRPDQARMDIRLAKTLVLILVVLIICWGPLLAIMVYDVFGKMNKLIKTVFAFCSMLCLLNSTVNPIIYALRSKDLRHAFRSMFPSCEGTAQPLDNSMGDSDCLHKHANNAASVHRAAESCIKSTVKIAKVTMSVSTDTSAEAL
T4 sequence (P35462 whole entry): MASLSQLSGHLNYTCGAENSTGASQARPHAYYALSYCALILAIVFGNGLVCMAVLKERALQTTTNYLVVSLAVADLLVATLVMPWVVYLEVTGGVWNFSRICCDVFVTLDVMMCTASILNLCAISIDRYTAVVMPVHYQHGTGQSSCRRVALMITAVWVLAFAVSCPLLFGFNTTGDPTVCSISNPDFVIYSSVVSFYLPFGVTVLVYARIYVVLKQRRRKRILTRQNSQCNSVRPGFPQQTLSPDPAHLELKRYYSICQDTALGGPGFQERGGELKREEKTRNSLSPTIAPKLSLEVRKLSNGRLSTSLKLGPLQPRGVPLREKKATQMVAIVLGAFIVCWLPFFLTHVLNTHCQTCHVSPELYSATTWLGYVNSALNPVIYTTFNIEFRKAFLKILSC
T10 sequence (Q99720 whole entry): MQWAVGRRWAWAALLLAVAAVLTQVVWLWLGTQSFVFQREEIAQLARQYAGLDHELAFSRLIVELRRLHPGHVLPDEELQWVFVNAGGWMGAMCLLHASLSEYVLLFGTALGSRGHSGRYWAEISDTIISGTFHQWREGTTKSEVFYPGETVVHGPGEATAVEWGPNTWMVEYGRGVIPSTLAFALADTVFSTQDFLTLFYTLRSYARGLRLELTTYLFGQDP
T14 sequence (P41595 whole entry, species assumed): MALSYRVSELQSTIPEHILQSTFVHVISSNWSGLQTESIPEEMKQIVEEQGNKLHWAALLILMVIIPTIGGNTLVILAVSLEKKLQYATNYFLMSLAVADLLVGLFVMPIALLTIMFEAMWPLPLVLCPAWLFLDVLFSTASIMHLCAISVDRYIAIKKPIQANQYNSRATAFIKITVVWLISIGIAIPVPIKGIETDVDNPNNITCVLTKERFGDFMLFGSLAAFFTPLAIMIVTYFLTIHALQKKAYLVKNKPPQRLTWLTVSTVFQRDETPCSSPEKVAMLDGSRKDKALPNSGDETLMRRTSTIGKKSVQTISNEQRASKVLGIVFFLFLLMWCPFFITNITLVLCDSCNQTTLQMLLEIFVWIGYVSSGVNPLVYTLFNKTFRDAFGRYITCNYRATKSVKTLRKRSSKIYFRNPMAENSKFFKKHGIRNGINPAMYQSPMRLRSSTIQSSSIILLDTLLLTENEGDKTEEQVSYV
T8 sequence (P41145 whole entry): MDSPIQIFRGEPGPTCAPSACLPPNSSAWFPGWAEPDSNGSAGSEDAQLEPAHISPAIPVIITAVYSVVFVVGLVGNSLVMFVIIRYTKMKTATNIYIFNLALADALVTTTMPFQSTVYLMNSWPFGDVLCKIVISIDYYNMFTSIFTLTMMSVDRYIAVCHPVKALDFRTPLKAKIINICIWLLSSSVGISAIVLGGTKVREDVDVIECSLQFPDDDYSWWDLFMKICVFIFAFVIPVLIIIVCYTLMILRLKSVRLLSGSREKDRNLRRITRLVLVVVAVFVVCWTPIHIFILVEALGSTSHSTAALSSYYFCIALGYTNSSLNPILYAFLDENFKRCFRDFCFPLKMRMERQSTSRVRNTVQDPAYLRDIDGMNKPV
T16 sequence (P34972 whole entry, species assumed): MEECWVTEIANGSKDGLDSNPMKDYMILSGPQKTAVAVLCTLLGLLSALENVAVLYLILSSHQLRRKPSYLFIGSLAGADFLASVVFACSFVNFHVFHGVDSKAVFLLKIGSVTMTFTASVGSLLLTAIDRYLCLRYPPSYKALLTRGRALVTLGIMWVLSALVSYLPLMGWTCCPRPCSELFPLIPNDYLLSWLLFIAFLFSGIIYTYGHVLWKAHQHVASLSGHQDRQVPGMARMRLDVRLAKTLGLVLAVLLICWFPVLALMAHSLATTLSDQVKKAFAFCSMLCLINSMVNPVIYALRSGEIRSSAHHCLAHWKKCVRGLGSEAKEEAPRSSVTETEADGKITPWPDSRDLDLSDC
T12 sequence (P41143 whole entry): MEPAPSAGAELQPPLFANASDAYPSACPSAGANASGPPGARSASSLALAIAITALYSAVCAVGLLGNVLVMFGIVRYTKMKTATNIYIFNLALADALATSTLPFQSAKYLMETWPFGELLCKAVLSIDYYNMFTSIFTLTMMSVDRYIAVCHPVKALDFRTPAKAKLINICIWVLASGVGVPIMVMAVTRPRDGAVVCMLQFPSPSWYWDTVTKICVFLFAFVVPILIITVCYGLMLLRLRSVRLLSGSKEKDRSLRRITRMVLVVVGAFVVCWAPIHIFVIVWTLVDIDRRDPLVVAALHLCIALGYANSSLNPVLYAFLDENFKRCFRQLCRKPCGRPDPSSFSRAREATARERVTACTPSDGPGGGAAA
T5 sequence (P30536 whole entry): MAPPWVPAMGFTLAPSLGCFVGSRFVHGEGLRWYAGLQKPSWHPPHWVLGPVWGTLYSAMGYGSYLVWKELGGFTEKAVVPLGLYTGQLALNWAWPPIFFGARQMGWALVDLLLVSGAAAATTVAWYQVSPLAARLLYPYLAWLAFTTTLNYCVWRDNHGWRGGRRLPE
T18 sequence (P13945 whole entry): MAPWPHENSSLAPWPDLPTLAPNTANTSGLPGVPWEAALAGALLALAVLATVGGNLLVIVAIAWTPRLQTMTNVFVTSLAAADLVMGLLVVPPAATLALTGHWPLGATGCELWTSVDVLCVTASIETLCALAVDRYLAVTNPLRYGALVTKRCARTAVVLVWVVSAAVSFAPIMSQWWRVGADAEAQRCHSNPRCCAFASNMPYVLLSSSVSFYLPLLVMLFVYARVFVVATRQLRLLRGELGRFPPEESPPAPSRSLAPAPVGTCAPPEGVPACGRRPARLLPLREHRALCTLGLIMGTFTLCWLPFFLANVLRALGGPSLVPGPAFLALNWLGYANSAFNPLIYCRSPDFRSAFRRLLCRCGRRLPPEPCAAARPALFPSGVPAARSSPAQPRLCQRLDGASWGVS
T7 sequence (Q9Y5N1 whole entry): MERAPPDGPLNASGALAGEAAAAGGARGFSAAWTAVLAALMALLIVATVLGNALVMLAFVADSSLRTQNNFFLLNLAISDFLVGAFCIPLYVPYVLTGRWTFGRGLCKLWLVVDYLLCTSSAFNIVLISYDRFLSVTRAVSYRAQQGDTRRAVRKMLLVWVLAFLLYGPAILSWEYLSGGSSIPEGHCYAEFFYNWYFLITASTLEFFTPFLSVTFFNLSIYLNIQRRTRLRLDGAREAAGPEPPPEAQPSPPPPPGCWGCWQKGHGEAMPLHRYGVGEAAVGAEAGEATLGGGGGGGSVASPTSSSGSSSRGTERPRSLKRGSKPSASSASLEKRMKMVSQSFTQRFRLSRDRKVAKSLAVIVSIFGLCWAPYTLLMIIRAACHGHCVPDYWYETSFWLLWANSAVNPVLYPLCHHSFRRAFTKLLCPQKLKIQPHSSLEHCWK
T17 sequence (Q5BJF2 whole entry): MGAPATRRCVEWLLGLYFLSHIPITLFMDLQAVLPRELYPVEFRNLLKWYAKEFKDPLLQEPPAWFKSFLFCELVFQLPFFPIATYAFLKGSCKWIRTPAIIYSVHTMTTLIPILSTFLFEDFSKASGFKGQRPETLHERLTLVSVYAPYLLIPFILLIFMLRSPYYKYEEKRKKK
T15 sequence (Q9H3N8 whole entry): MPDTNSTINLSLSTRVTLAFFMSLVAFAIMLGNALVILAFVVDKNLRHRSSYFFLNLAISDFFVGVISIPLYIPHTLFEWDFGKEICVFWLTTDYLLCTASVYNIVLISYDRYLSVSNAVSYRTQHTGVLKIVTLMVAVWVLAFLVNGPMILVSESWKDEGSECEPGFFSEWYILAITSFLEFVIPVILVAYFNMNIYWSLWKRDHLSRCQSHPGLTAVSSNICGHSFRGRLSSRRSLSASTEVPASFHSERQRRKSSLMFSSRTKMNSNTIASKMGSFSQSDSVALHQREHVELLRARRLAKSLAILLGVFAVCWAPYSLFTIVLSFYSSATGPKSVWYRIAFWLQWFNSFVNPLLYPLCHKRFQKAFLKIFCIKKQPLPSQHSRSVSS

SMILES: O=C(c1ccc(F)c(Cl)c1)N1CCC(F)(CNCCOc2ccccc2)CC1 [Compound 3]
- inhibition at 1 µM (SERT): 8%
- inhibition at 1 µM (5-HT6): -9%
- inhibition at 1 µM (M5): 3%
- inhibition at 0.01 µM (D3): 12%
- inhibition at 0.1 µM (D3): 26%
- inhibition at 1 µM (D3): 69%
- inhibition at 1 µM (BZDp (TSPO)): -10%
- inhibition at 1 µM (D1): 30%
- inhibition at 1 µM (H3): -14%
- inhibition at 1 µM (κ (KOR)): 4%
- inhibition at 1 µM (CB1): -9%
- inhibition at 0.01 µM (σ1): 1%
- inhibition at 0.1 µM (σ1): 15%
- inhibition at 1 µM (σ1): 88%
- % Inhibition of Control Specific Binding (BZD (peripheral)): -1.0%
- inhibition at 1 µM (GABAA1 (α1,β2,γ2)): -18%
- inhibition at 1 µM (δ (DOR)): 3%
- inhibition at 1 µM (NET): -7%
- inhibition at 1 µM (5-HT2B): 11%
- inhibition at 1 µM (H4): -11%
- inhibition at 1 µM (CB2): 4%
- inhibition at 0.01 µM (σ2): 11%
- inhibition at 0.1 µM (σ2): 33%
- inhibition at 1 µM (σ2): 82%
- inhibition at 1 µM (β3): -2%
- inhibition at 1 µM (5-HT5A): -1%
- inhibition at 0.001 µM (α2C): 1%
- inhibition at 0.01 µM (α2C): 18%
- inhibition at 0.1 µM (α2C): 66%
- inhibition at 1 µM (α2C): 92%
- inhibition at 0.001 µM (D4.4): -1%
- inhibition at 0.01 µM (D4.4): 8%
- inhibition at 0.1 µM (D4.4): 59%
- inhibition at 1 µM (D4.4): 92%
- inhibition at 1 µM (M3): 1%

SMILES: CNc1ccccc1OCCNCC1(F)CCN(C(=O)c2ccc(F)c(Cl)c2)CC1 [Compound 44, (3-Chloro-4-fluorophenyl)(4-fluoro-4-(((2-(2-(methylamino)phenoxy)ethyl)amino)methyl)piperidin-1-yl)methanone]
- inhibition at 1 µM (SERT): 18%
- inhibition at 1 µM (5-HT6): 3%
- inhibition at 1 µM (M5): -1%
- inhibition at 1 µM (D3): 42%
- inhibition at 1 µM (BZDp (TSPO)): -10%
- inhibition at 1 µM (D1): 36%
- inhibition at 1 µM (H3): -13%
- inhibition at 1 µM (κ (KOR)): -2%
- inhibition at 1 µM (CB1): 3%
- inhibition at 0.01 µM (σ1): 11%
- inhibition at 0.1 µM (σ1): 31%
- inhibition at 1 µM (σ1): 84%
- % Inhibition of Control Specific Binding (BZD (peripheral)): -5.0%
- inhibition at 1 µM (GABAA1 (α1,β2,γ2)): -4%
- inhibition at 1 µM (δ (DOR)): -5%
- inhibition at 1 µM (NET): 0%
- inhibition at 1 µM (5-HT2B): 23%
- inhibition at 1 µM (H4): -11%
- inhibition at 1 µM (CB2): -5%
- inhibition at 0.01 µM (σ2): 2%
- inhibition at 0.1 µM (σ2): 10%
- inhibition at 1 µM (σ2): 52%
- inhibition at 1 µM (β3): -7%
- inhibition at 1 µM (5-HT5A): 2%
- inhibition at 1 µM (α2C): 32%
- inhibition at 0.1 µM (D4.4): 51%
- inhibition at 1 µM (D4.4): 90%
- inhibition at 1 µM (M3): 9%

SMILES: O=C(c1ccc(F)c(Cl)c1)N1CCC(F)(CNCCOc2cccc3[nH]ccc23)CC1 [Compound 56, (4-(((2-((1H-Indol-4-yl)oxy)ethyl)amino)methyl)-4-fluoropiperidin-1-yl)(3-chloro-4-fluorophenyl)methanone]
- inhibition at 1 µM (SERT): 22%
- inhibition at 1 µM (5-HT6): 1%
- inhibition at 0.01 µM (M5; 10 nM): 4%
- inhibition at 0.1 µM (M5; 100 nM): -3%
- inhibition at 1 µM (M5): 54%
- inhibition at 0.001 µM (D3; 1 nM): 41%
- inhibition at 0.01 µM (D3): 36%
- inhibition at 0.1 µM (D3): 85%
- inhibition at 1 µM (D3): 99%
- inhibition at 1 µM (BZDp (TSPO)): -6%
- inhibition at 0.01 µM (D1; 10 nM): 12%
- inhibition at 0.1 µM (D1; 100 nM): 52%
- inhibition at 1 µM (D1): 89%
- inhibition at 1 µM (H3): -17%
- inhibition at 1 µM (κ (KOR)): 6%
- inhibition at 1 µM (CB1): -15%
- inhibition at 0.01 µM (σ1): 1%
- inhibition at 0.1 µM (σ1): 22%
- inhibition at 1 µM (σ1): 86%
- % Inhibition of Control Specific Binding (BZD (peripheral)): -1.0%
- inhibition at 1 µM (GABAA1 (α1,β2,γ2)): -13%
- inhibition at 1 µM (δ (DOR)): 0%
- inhibition at 1 µM (NET): 5%
- inhibition at 1 µM (5-HT2B): 48%
- inhibition at 1 µM (H4): 5%
- inhibition at 1 µM (CB2): 1%
- inhibition at 0.01 µM (σ2): -1%
- inhibition at 0.1 µM (σ2): 31%
- inhibition at 1 µM (σ2): 63%
- inhibition at 1 µM (β3): 1%
- inhibition at 0.01 µM (5-HT5A; 10 nM): -18%
- inhibition at 0.1 µM (5-HT5A; 100 nM): 12%
- inhibition at 1 µM (5-HT5A): 53%
- inhibition at 0.001 µM (α2C): 3%
- inhibition at 0.01 µM (α2C): 18%
- inhibition at 0.1 µM (α2C): 74%
- inhibition at 0.001 µM (D4.4): 9%
- inhibition at 0.01 µM (D4.4): 48%
- inhibition at 0.1 µM (D4.4): 89%
- inhibition at 1 µM (D4.4): 98%
- inhibition at 1 µM (M3): 1%
